Experimental data taken from US20250000834A1, “COMPOSITIONS AND METHODS FOR TARGETING GPCR FOR THE PREVENTION AND TREATMENT OF PAIN” (Duke University, priority 2021, published 2025).
Non-standard residues stand in square brackets, D forms with d. Residues, ends and D or L forms follow the SMILES beside them.

Assays:
hGPR37L1 [1] = biological target: T1, hGPR37L1 (Homo sapiens, UniProt O60883); experiment: Lipid-coated bead pull-down assay with hGPR37L1-expressing cells; type: binding; set-up: expressed in transfected cells; host or cells: HEK293 Flp-In cells; conditions: Western blot
T1 sequence (O60883 26-481): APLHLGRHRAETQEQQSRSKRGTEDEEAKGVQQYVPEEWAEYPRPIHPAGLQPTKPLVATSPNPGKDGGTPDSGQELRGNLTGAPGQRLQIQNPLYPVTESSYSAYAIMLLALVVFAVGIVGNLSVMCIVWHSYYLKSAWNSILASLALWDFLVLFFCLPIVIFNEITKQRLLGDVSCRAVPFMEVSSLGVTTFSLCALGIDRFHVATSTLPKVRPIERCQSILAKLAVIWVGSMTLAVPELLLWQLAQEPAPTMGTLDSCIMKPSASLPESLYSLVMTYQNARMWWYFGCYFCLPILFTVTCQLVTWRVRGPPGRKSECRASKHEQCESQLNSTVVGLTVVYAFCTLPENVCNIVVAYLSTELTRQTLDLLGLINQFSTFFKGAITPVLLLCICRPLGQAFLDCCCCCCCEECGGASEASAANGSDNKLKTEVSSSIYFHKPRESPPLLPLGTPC
Experimental: Lipid pull-down assay: Isolated membrane proteins were pre-adsorbed to uncoated control agarose beads (Vector Laboratories, Burlingame, CA); the unbound fraction was collected and incubated 24 hrs at 4° C. with lipid-coated agarose beads (S. Bang et al., GPR37 regulates macrophage phagocytosis and resolution of inflammatory pain. J Clin Invest 128, 3568-3582 (2018)). After extensive washing, bound proteins were eluted from the lipid-coated beads, suspended in Laemmli buffer containing 2% SDS (w/v) and 0.3-M β-mercaptoethanol (Sigma-Aldrich, St. Louis, MO), and heated 5 min at 95° C. to dissolve proteins before separation on 4-20% polyacrylamide/SDS gels as outlined above. The lysate proteins were detected by western blot.
Western blot: GPR37L1 proteins were isolated from transfected cells, lipid pull-down beads, and mouse DRG. The cells were placed on ice, washed with ice-cold phosphate-buffered saline (PBS), and harvested with ice-cold RIPA buffer (Sigma-Aldrich, St. Louis, MO) with Protease Inhibitor Cocktail Tablet (pH 7.4) (Roche Diagnostics, Indianapolis, IN). The cell lysates were centrifugated for removing insoluble debris and were calculated by BCA assay for detection of protein level, and the supernatant was mixed with 4× Laemmli buffer (Bio-Rad, Hercules, CA) and boiling. Protein samples were […] on 4-15% gradient SDS-PAGE gel (Bio-Rad, Hercules, CA) and blotted on PVDF membrane (Bio-Rad, Hercules, CA). Ponceau S staining was used for the detection of total proteins. The primary antibody was incubated with PBS+1% BSA at 4° C. overnight. We used the following primary antibodies: anti-GPR37L1 antibody (Bioss (Woburn, MA), Rabbit, 1:1000, #bs-15390R); anti-GAPDH antibody (Proteintech (Rosemont, IL), mouse, 1:2000, #60004); and anti-flag antibody (Cell Signaling Technologies (Danvers, MA), Rabbit, 1:1000, #14793). Blots were further incubated with an […] secondary anti-rabbit antibody (Jackson ImmunoResearch Laboratories (West Grove, PA), donkey, 1:5000), developed in ECL solution (Pierce Biotechnology, Appleton, WI)), and visualized in ChemiDoc XRS (Bio-Rad, Hercules, CA). Protein signal intensity was quantified by Image J software (NIH).
Next, a lipid-coated bead pull-down assay with hGPR37L1-expressing cells was used to confirm whether MaR1 would interact with GPR37L1 protein selectively. […] The right molecule size of GPR37L1 (˜50 kDa) was also validated by the anti-FLAG antibody (data not shown; see U.S. Prov. No. 63/270,198, FIG. 3E).

hGPR37L1 [2] = biological target: T1, hGPR37L1; experiment: Beta-arrestin assay (PathHunter hGPR37L1 CHO-K1); type: cell-based; conditions: hGPR37L1 ChoK1 cells, n=6; for β-arrestin signaling: 0.1 nM to 100 nM; for EC50: read-out: EC50 of β-arrestin response
Experimental: Beta-arrestin assay: To screen for GPR37L1 ligands, the PathHunter® eXpress GPR37L1 CHO-K1 kit was purchased from Eurofins Discoveryone™ (DiscoverX Solutions for Drug Discovery, Fremont, CA; Cat #93-0378E2ACP1M). CHO-K1 cells express human GPR37L1 and were grown in 96-well plates for 48 hours. Lipid compounds were incubated with the ChoK1 cells for 1 hour at 37° C., and GPR37L1 activation was determined by measuring chemiluminescence using the beta-arrestin 2 (β-arrestin) detection kit (DiscoverX Solutions for Drug Discovery, Fremont, CA). The luminescent activity was measured using an Infinite F200 Pro Illuminometer (Tecan Trading AG, Switzerland).
Eight different concentrations of compounds ranging from 0.1 nM to 100 nM were tested.

[3] = system: neuron-glia mixed cultures from DRG; experiment: IL-1β release in SGC-neuron co-cultures from DRG (ELISA); type: cell-based, mouse; conditions: 1 μM for 24 h
Experimental: SGC and neuron co-culture: DRG were collected from wild-type (WT) or knock-out (KO) mice (8 weeks male) and incubated in 1 mg/ml Collagenase/Dispase (Roche Diagnostics, Madison, WI, USA) at 37° C. for 60 min, with agitation at 100 revolutions per minute (RPM) and then followed by incubation in 0.05% trypsin/EDTA for 10 min. The digestion enzymes were prepared in Dulbecco's modified Eagle medium/F12 with GlutaMAX (ThermoFisher, Waltham, MA). After incubation of 0.1% trypsin inhibitor and centrifugation (300 G), the cell pellet was gently triturated in a neurobasal medium containing […]. Dissociated DRG cells were seeded on non-coated culture dishes for 4 hrs. SGC and neurons were included for co-culture by hand-shaking of the culture flasks gently for 5 to 10 min and then resuspended by replacing with a new neurobasal medium. The attached glial-like cells were cultured in the DMEM/F12 medium containing 10% fetal bovine serum and 1% streptomycin/penicillin to promote cell growth and inhibition of differentiation. After 2 to 6 days, the glial-like cells were differentiated by application of the serum-free neural basal medium. […]

[4] = system: Kir4.1 potassium channels in SGCs; experiment: Patch-clamp recordings of K+ currents in SGCs of whole-mount DRG; type: cell-based, mouse
Experimental: Patch-clamp recordings in SGCs of whole-mount DRG: Under urethane anesthesia, mice were rapidly euthanized, followed by careful isolation of lumbar DRGs placed in the oxygenated artificial cerebral spinal fluid (aCSF). DRGs were briefly digested (20 min) using an enzymatic mixture consisting of collagenase A (1 mg/mL) and 0.32 mL Trypsin (0.25% original solution). Intact DRG were then incubated in aCSF oxygenated with 95% O2 and 5% CO2 at 34° C. Following incubation, DRG were transferred to a recording chamber. Isolated DRGs were transferred to a recording chamber continuously perfused (˜3 ml/min) with aCSF. SGCs in whole mouse DRGs could be visualized using a 40× water-immersion objective on an Olympus BX51WI microscope (Olympus Corp., Shinjuku, Japan). The round or fusiform-shaped cell bodies of SGCs were small (<10 μm) but visible near the edges of DRG neurons. Patch pipettes (Chase Scientific Glass Inc., Ramsey, MN) were pulled and filled with a pipette solution containing: 126 mM potassium gluconate, 10 mM NaCl, 1 mM MgCl2, 10 mM EGTA, 2 mM Na-ATP, and 0.1 mM Mg-GTP, adjusted to pH 7.3 with KOH. The resistance of pipettes was 10-12 MΩ. A Whole-cell patch-clamp configuration was made on SGCs at room temperature using a Multiclamp 700B amplifier (Axon Instruments, Union City, CA). Under voltage clamp, at a holding potential of −80 mV, inward or outward currents are triggered by voltage steps of −160 to +40 mV, with 20 mV increment in 200 ms (H. Zhang et al., Altered functional properties of satellite glial cells in compressed spinal ganglia. Glia 57, 1588-1599 (2009)). To isolate inwardly rectifying potassium current (Kir), potassium currents from the same cells were recorded in the absence and presence of 100 μM extracellular barium, which blocks the Kir4.1 channel (C. A. Doupnik, et al, The inward rectifier potassium channel family. Curr Opin Neurobiol 5, 268-277 (1995); X. Tong et al., Astrocyte Kir4.1 ion channel deficits contribute to neuronal dysfunction in Huntington's disease model mice. Nat Neurosci 17, 694-703 (2014)). The Kir4.1 currents were obtained by digitally subtracting those currents in the absence and presence of barium.
Kir4.1 potassium channels are the predominant potassium channels in SGCs and are chiefly responsible for the potassium currents in SGCs. Dysregulation of SGC Kir4.1 contributes to the pathogenesis of pain (M. Hanani, D. C. Spray, Emerging importance of satellite glia in nervous system function and dysfunction. Nat Rev Neurosci 21, 485-498 (2020)). SGC K^+ currents were recorded by conducting patch-clamp recordings in SGCs in whole-mount DRG preparation (data not shown; see U.S. Prov. No. 63/270,198, FIG. 7A), collected from WT mice, Gpr37l1^+/+ mice, and Gpr37l1^+/− mutant mice (FIG. 11A parts A-C).

CC/C=C\C/C=C\C/C=C\C/C=C\C/C=C\C/C=C\CCC(=O)O [DHA, reference compound]
GPR37L1 binding in lipid-coated bead pull-down extracts (hGPR37L1 [1]): not binding

CC/C=C\C[C@H](O)\C=C/C=C/C=C/[C@H](O)C/C=C\C/C=C\CCC(=O)O [NPD1, Neuroprotectin D1]
β-arrestin signaling (hGPR37L1 [2]): 1.8 fold increase
EC50 (hGPR37L1 [2]): 1.74 nM
GPR37L1 binding in lipid-coated bead pull-down extracts (hGPR37L1 [1]): some weak binding

CC(=O)O[C@H]1C(=O)[C@@]2(C)[C@H]([C@H](OC(=O)c3ccccc3)[C@]3(O)C[C@H](OC(=O)[C@H](O)[C@@H](NC(=O)c4ccccc4)c4ccccc4)C(C)=C1C3(C)C)[C@]1(OC(C)=O)CO[C@@H]1C[C@@H]2O [PTX, paclitaxel, reference compound]
IL-1β secretion in culture medium [3]: marked increase
effect on K+ currents in SGCs ([4]; 1 μM, 60 min, WT-DRG): substantial reduction

CC/C=C\C[C@H](O)/C=C/C=C\C=C\C=C\[C@@H](O)[C@@H](O)C/C=C\CCC(=O)O [RvD1]
GPR37L1 binding in lipid-coated bead pull-down extracts (hGPR37L1 [1]): not binding

CC/C=C\C[C@H](O)[C@H](O)/C=C/C=C/C=C\C=C\[C@@H](O)C/C=C\CCC(=O)O [RvD2]
GPR37L1 binding in lipid-coated bead pull-down extracts (hGPR37L1 [1]): not binding

CC[C@H](C)[C@H](NC(=O)[C@H](CCC(=O)O)NC(=O)[C@H](CCC(=O)O)NC(=O)[C@@H](NC(=O)[C@H](C)NC(=O)[C@H](CC(N)=O)NC(=O)[C@H](CC(N)=O)NC(=O)[C@H](CC(=O)O)NC(=O)[C@@H](NC(=O)[C@H](CC(C)C)NC(=O)[C@@H](C)NC(=O)[C@@H](N)[C@@H](C)O)[C@@H](C)CC)[C@@H](C)O)C(=O)N[C@@H](CC(C)C)C(=O)N[C@@H](Cc1ccc(O)cc1)C(=O)O [TX14, reference compound] (H-T[dA]LIDNNATEEILY-OH; N-terminus and C-terminus assumed)
β-arrestin signaling (hGPR37L1 [2]): 3.71 fold increase
EC50 (hGPR37L1 [2]): 9.8 nM

Barium [reference compound]
effect on total K+ currents in SGCs ([4]; 100 μM): largely blocked
